Measurements from PubChem BioAssay (NCI).
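Five concentrations, 48 hours, 96-well plates. TGI: total growth inhibition.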

Assays:
Assay in all cases: growth of human tumour cells (NCI), 48 h
M14 melanoma = tested on: M14 melanoma
NCI-H23 lung = tested on: NCI-H23 lung
SW-620 colon = tested on: SW-620 colon
ACHN renal = tested on: ACHN renal
COLO 205 colon = tested on: COLO 205 colon
MOLT-4 leukemia = tested on: MOLT-4 leukemia
NCI-H522 lung = tested on: NCI-H522 lung
MCF7 breast = tested on: MCF7 breast
BT-549 breast = tested on: BT-549 breast
OVCAR-4 ovarian = tested on: OVCAR-4 ovarian
SR leukemia = tested on: SR leukemia
HCT-15 colon = tested on: HCT-15 colon
786-0 renal = tested on: 786-0 renal
CCRF-CEM leukemia = tested on: CCRF-CEM leukemia
HOP-92 NSCLC = tested on: HOP-92 NSCLC
HS 578T breast = tested on: HS 578T breast
IGROV1 ovarian = tested on: IGROV1 ovarian
SN12C renal = tested on: SN12C renal
MALME-3M melanoma = tested on: MALME-3M melanoma
MDA-N = tested on: MDA-N
EKVX NSCLC = tested on: EKVX NSCLC
SF-539 CNS = tested on: SF-539 CNS
OVCAR-5 ovarian = tested on: OVCAR-5 ovarian
HCT-116 colon = tested on: HCT-116 colon
SF-268 CNS = tested on: SF-268 CNS
SK-MEL-5 melanoma = tested on: SK-MEL-5 melanoma
SNB-19 CNS = tested on: SNB-19 CNS
HT29 colon = tested on: HT29 colon
SK-OV-3 ovarian = tested on: SK-OV-3 ovarian
SK-MEL-2 melanoma = tested on: SK-MEL-2 melanoma
MDA-MB-435 = tested on: MDA-MB-435
UO-31 renal = tested on: UO-31 renal
HL-60(TB) leukemia = tested on: HL-60(TB) leukemia
NCI-H226 lung = tested on: NCI-H226 lung
UACC-62 melanoma = tested on: UACC-62 melanoma
A549 NSCLC = tested on: A549 NSCLC
OVCAR-8 ovarian = tested on: OVCAR-8 ovarian
SK-MEL-28 melanoma = tested on: SK-MEL-28 melanoma
NCI/ADR-RES ovarian = tested on: NCI/ADR-RES ovarian
RXF 393 renal = tested on: RXF 393 renal
SF-295 CNS = tested on: SF-295 CNS
KM12 colon = tested on: KM12 colon
K-562 leukemia = tested on: K-562 leukemia
OVCAR-3 ovarian = tested on: OVCAR-3 ovarian
PC-3 prostate = tested on: PC-3 prostate
A498 renal = tested on: A498 renal
LOX IMVI melanoma = tested on: LOX IMVI melanoma
RPMI-8226 leukemia = tested on: RPMI-8226 leukemia
CAKI-1 renal = tested on: CAKI-1 renal
SNB-75 CNS = tested on: SNB-75 CNS
DU-145 prostate = tested on: DU-145 prostate
T-47D breast = tested on: T-47D breast

With `COc1cc(/C=N/NC(=O)c2ccc(NC(C)=O)cc2OC)ccc1O` the TGI (M14 melanoma) was over 100 µM, the TGI (NCI-H23 lung) was over 100 µM and the TGI (SW-620 colon) was over 100 µM. It also gave a TGI (ACHN renal) of over 100 µM, a TGI (COLO 205 colon) of over 100 µM and a TGI (MOLT-4 leukemia) of over 100 µM. For the same compound, the TGI (NCI-H522 lung) was over 100 µM, the TGI (MCF7 breast) was over 100 µM and the TGI (BT-549 breast) was over 100 µM. For the same compound, the TGI (OVCAR-4 ovarian) was over 100 µM, the TGI (SR leukemia) was over 100 µM and the TGI (HCT-15 colon) was over 100 µM. The TGI (786-0 renal) was over 100 µM, the TGI (CCRF-CEM leukemia) was over 100 µM and the TGI (HOP-92 NSCLC) was 54.3 µM. It also gave a TGI (HS 578T breast) of 81.6 µM, a TGI (IGROV1 ovarian) of over 100 µM and a TGI (SN12C renal) of over 100 µM. The TGI (MALME-3M melanoma) was over 100 µM, the TGI (MDA-N) was over 100 µM and the TGI (EKVX NSCLC) was over 100 µM. It also gave a TGI (SF-539 CNS) of over 100 µM, a TGI (OVCAR-5 ovarian) of over 100 µM and a TGI (HCT-116 colon) of over 100 µM. It also gave a TGI (SF-268 CNS) of over 100 µM, a TGI (SK-MEL-5 melanoma) of over 100 µM and a TGI (SNB-19 CNS) of over 100 µM. It also gave a TGI (HT29 colon) of over 100 µM, a TGI (SK-OV-3 ovarian) of over 100 µM and a TGI (SK-MEL-2 melanoma) of 93.3 µM. For the same compound, the TGI (MDA-MB-435) was over 100 µM, the TGI (UO-31 renal) was over 100 µM and the TGI (HL-60(TB) leukemia) was over 100 µM. For the same compound, the TGI (NCI-H226 lung) was over 100 µM, the TGI (UACC-62 melanoma) was over 100 µM and the TGI (A549 NSCLC) was over 100 µM. It also gave a TGI (OVCAR-8 ovarian) of over 100 µM, a TGI (SK-MEL-28 melanoma) of over 100 µM and a TGI (NCI/ADR-RES ovarian) of over 100 µM. It also gave a TGI (RXF 393 renal) of over 100 µM, a TGI (SF-295 CNS) of over 100 µM and a TGI (KM12 colon) of over 100 µM. It also gave a TGI (K-562 leukemia) of over 100 µM, a TGI (OVCAR-3 ovarian) of over 100 µM and a TGI (PC-3 prostate) of over 100 µM. It also gave a TGI (A498 renal) of over 100 µM, a TGI (LOX IMVI melanoma) of over 100 µM and a TGI (RPMI-8226 leukemia) of over 100 µM. It also gave a TGI (CAKI-1 renal) of over 100 µM, a TGI (SNB-75 CNS) of 73 µM and a TGI (DU-145 prostate) of over 100 µM. The TGI (T-47D breast) was over 100 µM.
